The record followed here is paper PMC10046020, “In Silico Screening and Optimization of Cell-Penetrating Peptides Using Deep Learning Methods” (Biomolecules, 2023).

The structures appear in SMILES notation. Peptide text beside a SMILES is read from it. * marks the point of attachment. FITC = O=C1OC2(c3ccc(O)cc3Oc3cc(O)ccc32)c2ccc(NC(=S)*)cc21; Ahx = NCCCCCC(=O)O

The subject of the data set is MCF-7 cells.

Description: MCF-7 cells are maintained in Roswell Park Memorial Institute 1640 medium supplemented with 10% fetal bovine serum and 1% antibiotics at 37 °C in an atmosphere of 5% CO2 in the air. Cells are cultured in a 35-mm plate at a density of 5 × 10^5 cells in growth medium, incubated overnight, and then treated with 1 µM FITC-conjugated peptide for 1 h at 37 °C in a CO2 incubator.
The cultured cells are harvested, washed twice with phosphate-buffered saline (PBS), treated with trypsin for 5 min, washed with PBS again, and then resuspended in 1 mL of 2% paraformaldehyde in PBS. Cells were then transferred to a fluorescence-activated cell sorting tube and analyzed by flow cytometry using a Novocyte flow cytometer (Agilent, Santa Clara, CA, USA).

In the case of `CSCC[C@H](NC(=O)CCCCCNC(=S)Nc1ccc2c(c1)C(=O)OC21c2ccc(O)cc2Oc2cc(O)ccc21)C(=O)N[C@@H](CC(C)C)C(=O)N[C@@H](CCCCN)C(=O)N[C@@H](Cc1c[nH]cn1)C(=O)N[C@@H](CC(C)C)C(=O)N[C@@H](C)C(=O)N[C@@H](CC(C)C)C(=O)N[C@@H](CC(C)C)C(=O)N[C@@H](CC(C)C)C(=O)N[C@@H](CC(C)C)C(=O)N[C@@H](C)C(=O)N[C@@H](C)C(=O)N[C@@H](Cc1c[nH]c2ccccc12)C(=O)N[C@@H](CCCCN)C(=O)N[C@@H](C)C(=O)N[C@@H](CCCNC(=N)N)C(=O)N[C@@H](C)C(N)=O` [Peptide 7] ({FITC-Ahx}-MLKHLALLLLAAWKARA-NH2), the Permeability was found to be 59.07%.
